Experimental data reported in ChEMBL document CHEMBL4004849, “Tetrazolylmethyl quinolines: Design, docking studies, synthesis, anticancer and antifungal analyses” (2017).
Values after ≈ are worked out from the molar mass of the structure shown. Active and inactive are the calls of the source. The rule behind the calls is not given here.

Experiments:
Format in all cases: functional
[1] = tested on: NCI-H226; assay: Growth inhibition of human NCI-H226 cells at 10^-5 M incubated for 48 hrs by sulforhodamine B assay relative to control
[2] = tested on: RXF 393; assay: Growth inhibition of human RXF393 cells at 10^-5 M incubated for 48 hrs by sulforhodamine B assay relative to control
[3] = tested on: UACC-62; assay: Growth inhibition of human UACC62 cells at 10^-5 M incubated for 48 hrs by sulforhodamine B assay relative to control
[4] = tested on: SF-268; assay: Growth inhibition of human SF268 cells at 10^-5 M incubated for 48 hrs by sulforhodamine B assay relative to control
[5] = tested on: Hs-578T; assay: Growth inhibition of human Hs 578T cells at 10^-5 M incubated for 48 hrs by sulforhodamine B assay relative to control
[6] = tested on: Candida albicans; assay: Antifungal activity against Candida albicans after 24 hrs by serial dilution method
[7] = tested on: SW-620; assay: Growth inhibition of human SW620 cells at 10^-5 M incubated for 48 hrs by sulforhodamine B assay relative to control
[8] = tested on: M14; assay: Growth inhibition of human M14 cells at 10^-5 M incubated for 48 hrs by sulforhodamine B assay relative to control
[9] = tested on: MDA-MB-231; assay: Growth inhibition of human MDA-MB-231/ATCC cells at 10^-5 M incubated for 48 hrs by sulforhodamine B assay relative to control
[10] = tested on: TK-10; assay: Growth inhibition of human TK10 cells at 10^-5 M incubated for 48 hrs by sulforhodamine B assay relative to control
[11] = tested on: LOX IMVI; assay: Growth inhibition of human LOXIMVI cells at 10^-5 M incubated for 48 hrs by sulforhodamine B assay relative to control
[12] = tested on: BT-549; assay: Growth inhibition of human BT549 cells at 10^-5 M incubated for 48 hrs by sulforhodamine B assay relative to control
[13] = tested on: A549; assay: Growth inhibition of human A549/ATCC cells at 10^-5 M incubated for 48 hrs by sulforhodamine B assay relative to control
[14] = tested on: UO-31; assay: Growth inhibition of human UO31 cells at 10^-5 M incubated for 48 hrs by sulforhodamine B assay relative to control
[15] = tested on: 786-0; assay: Growth inhibition of human 786-0 cells at 10^-5 M incubated for 48 hrs by sulforhodamine B assay relative to control
[16] = tested on: OVCAR-8; assay: Growth inhibition of human OVCAR8 cells at 10^-5 M incubated for 48 hrs by sulforhodamine B assay relative to control
[17] = tested on: Aspergillus fumigatus; assay: Antifungal activity against Aspergillus fumigatus at 100 ug/ml by disc diffusion method; conditions: read-out: IZ
[18] = tested on: EKVX; assay: Growth inhibition of human EKVX cells at 10^-5 M incubated for 48 hrs by sulforhodamine B assay relative to control
[19] = tested on: OVCAR-5; assay: Growth inhibition of human OVCAR5 cells at 10^-5 M incubated for 48 hrs by sulforhodamine B assay relative to control
[20] = tested on: T47D; assay: Growth inhibition of human T47D cells at 10^-5 M incubated for 48 hrs by sulforhodamine B assay relative to control
[21] = tested on: SN12C; assay: Growth inhibition of human SN12C cells at 10^-5 M incubated for 48 hrs by sulforhodamine B assay relative to control
[22] = tested on: HCC 2998; assay: Growth inhibition of human HCC2998 cells at 10^-5 M incubated for 48 hrs by sulforhodamine B assay relative to control
[23] = tested on: SK-MEL-5; assay: Growth inhibition of human SK-MEL-5 cells at 10^-5 M incubated for 48 hrs by sulforhodamine B assay relative to control
[24] = tested on: Aspergillus fumigatus; assay: Antifungal activity against Aspergillus fumigatus after 24 hrs by serial dilution method
[25] = tested on: SK-MEL-28; assay: Growth inhibition of human SK-MEL-28 cells at 10^-5 M incubated for 48 hrs by sulforhodamine B assay relative to control
[26] = tested on: SK-OV-3; assay: Growth inhibition of human SKOV3 cells at 10^-5 M incubated for 48 hrs by sulforhodamine B assay relative to control
[27] = tested on: SNB-19; assay: Growth inhibition of human SNB19 cells at 10^-5 M incubated for 48 hrs by sulforhodamine B assay relative to control
[28] = tested on: MCF7; assay: Growth inhibition of human MCF7 cells at 10^-5 M incubated for 48 hrs by sulforhodamine B assay relative to control
[29] = tested on: SF-539; assay: Growth inhibition of human SF539 cells at 10^-5 M incubated for 48 hrs by sulforhodamine B assay relative to control
[30] = tested on: NCI-H23; assay: Growth inhibition of human NCI-H23 cells at 10^-5 M incubated for 48 hrs by sulforhodamine B assay relative to control
[31] = tested on: SF-295; assay: Growth inhibition of human SF295 cells at 10^-5 M incubated for 48 hrs by sulforhodamine B assay relative to control
[32] = tested on: HL-60(TB); assay: Growth inhibition of human HL-60(TB) cells at 10^-5 M incubated for 48 hrs by sulforhodamine B assay relative to control
[33] = tested on: OVCAR-4; assay: Growth inhibition of human OVCAR4 cells at 10^-5 M incubated for 48 hrs by sulforhodamine B assay relative to control
[34] = tested on: SR; assay: Growth inhibition of human SR cells at 10^-5 M incubated for 48 hrs by sulforhodamine B assay relative to control
[35] = tested on: K562; assay: Growth inhibition of human K562 cells at 10^-5 M incubated for 48 hrs by sulforhodamine B assay relative to control
[36] = tested on: U-251; assay: Growth inhibition of human U251 cells at 10^-5 M incubated for 48 hrs by sulforhodamine B assay relative to control
[37] = tested on: ACHN; assay: Growth inhibition of human ACHN cells at 10^-5 M incubated for 48 hrs by sulforhodamine B assay relative to control
[38] = tested on: OVCAR-3; assay: Growth inhibition of human OVCAR3 cells at 10^-5 M incubated for 48 hrs by sulforhodamine B assay relative to control
[39] = tested on: HCT-15; assay: Growth inhibition of human HCT15 cells at 10^-5 M incubated for 48 hrs by sulforhodamine B assay relative to control
[40] = tested on: COLO 205; assay: Growth inhibition of human COLO205 cells at 10^-5 M incubated for 48 hrs by sulforhodamine B assay relative to control
[41] = tested on: MOLT-4; assay: Growth inhibition of human MOLT4 cells at 10^-5 M incubated for 48 hrs by sulforhodamine B assay relative to control
[42] = tested on: UACC-257; assay: Growth inhibition of human UACC257 cells at 10^-5 M incubated for 48 hrs by sulforhodamine B assay relative to control
[43] = tested on: HT-29; assay: Growth inhibition of human HT-29 cells at 10^-5 M incubated for 48 hrs by sulforhodamine B assay relative to control
[44] = tested on: KM12; assay: Growth inhibition of human KM12 cells at 10^-5 M incubated for 48 hrs by sulforhodamine B assay relative to control
[45] = tested on: SNB-75; assay: Growth inhibition of human SNB75 cells at 10^-5 M incubated for 48 hrs by sulforhodamine B assay relative to control

SMILES: COc1ccc2nc(Cl)c(Cn3nnnc3Cc3ccccc3)cc2c1
- growth inhibition (GI) [1]: Active
- growth inhibition (GI) [2]: Active
- growth inhibition (GI) [3]: Active
- growth inhibition (GI) [4]: Active
- growth inhibition (GI) [5]: Active
- MIC [6]: 25 mg/L (≈ 68.3 µM)
- growth inhibition (GI) [7]: Active
- growth inhibition (GI) [8]: Active
- growth inhibition (GI) [9]: Active
- growth inhibition (GI) [10]: Active
- growth inhibition (GI) [11]: Active
- growth inhibition (GI) [12]: Active
- growth inhibition (GI) [13]: Active
- growth inhibition (GI) [14]: Active
- growth inhibition (GI) [15]: Active
- growth inhibition (GI) [16]: Active
- zone of inhibition at 100 µg/mL [17]: 20 mm
- growth inhibition (GI) [18]: Active
- growth inhibition (GI) [19]: Active
- growth inhibition (GI) [20]: Active
- growth inhibition (GI) [21]: Active
- growth inhibition (GI) [22]: Active
- growth inhibition (GI) [23]: Active
- MIC [24]: 25 mg/L (≈ 68.3 µM)
- growth inhibition (GI) [25]: Active
- growth inhibition (GI) [26]: Active
- growth inhibition (GI) [27]: Active
- growth inhibition (GI) [28]: Active
- growth inhibition (GI) [29]: Active
- growth inhibition (GI) [30]: Active
- growth inhibition (GI) [31]: Active
- growth inhibition (GI) [32]: Active
- growth inhibition (GI) [33]: Active
- growth inhibition (GI) [34]: Active
- growth inhibition (GI) [35]: Active
- growth inhibition (GI) [36]: Active
- growth inhibition (GI) [37]: Active
- growth inhibition (GI) [38]: Active
- growth inhibition (GI) [39]: Active
- growth inhibition (GI) [40]: Active
- growth inhibition (GI) [41]: Active
- growth inhibition (GI) [42]: Active
- growth inhibition (GI) [43]: Active
- growth inhibition (GI) [44]: Active
- growth inhibition (GI) [45]: Active

SMILES: Clc1nc2ccccc2cc1Cn1nnc(CSc2ccccc2)n1
- growth inhibition (GI) [1]: Active
- growth inhibition (GI) [2]: Active
- growth inhibition (GI) [3]: Active
- growth inhibition (GI) [4]: Active
- growth inhibition (GI) [5]: Active
- MIC [6]: 10 mg/L (≈ 27.2 µM)
- growth inhibition (GI) [7]: Active
- growth inhibition (GI) [8]: Active
- growth inhibition (GI) [9]: Active
- growth inhibition (GI) [10]: Active
- growth inhibition (GI) [11]: Active
- growth inhibition (GI) [12]: Active
- growth inhibition (GI) [13]: Active
- growth inhibition (GI) [14]: Active
- growth inhibition (GI) [15]: Active
- growth inhibition (GI) [16]: Active
- zone of inhibition at 100 µg/mL [17]: 15 mm
- growth inhibition (GI) [18]: Active
- growth inhibition (GI) [19]: Active
- growth inhibition (GI) [20]: Active
- growth inhibition (GI) [21]: Active
- growth inhibition (GI) [22]: Active
- growth inhibition (GI) [23]: Active
- MIC [24]: 25 mg/L (≈ 68 µM)
- growth inhibition (GI) [25]: Active
- growth inhibition (GI) [26]: Active
- growth inhibition (GI) [27]: Active
- growth inhibition (GI) [28]: Active
- growth inhibition (GI) [29]: Active
- growth inhibition (GI) [30]: Active
- growth inhibition (GI) [31]: Active
- growth inhibition (GI) [32]: Active
- growth inhibition (GI) [33]: Active
- growth inhibition (GI) [34]: Active
- growth inhibition (GI) [35]: Active
- growth inhibition (GI) [36]: Active
- growth inhibition (GI) [37]: Active
- growth inhibition (GI) [38]: Active
- growth inhibition (GI) [39]: Active
- growth inhibition (GI) [40]: Active
- growth inhibition (GI) [41]: Active
- growth inhibition (GI) [42]: Active
- growth inhibition (GI) [43]: Active
- growth inhibition (GI) [44]: Active
- growth inhibition (GI) [45]: Active
